# Assay results taken from ChEMBL document CHEMBL1128803 (Bioorg Med Chem Lett, 1995).
# How the values were obtained:
# Type in all cases: protein assay
# [1] = molecular target: Phosphodiesterase 3 (Homo sapiens) (UniProt Q14432+Q13370); assay: Inhibition of Phosphodiesterase 3 (PDE III) at 100 uM
# Phosphodiesterase 4 [2] = molecular target: Phosphodiesterase 4 (Homo sapiens, UniProt P27815+Q08499+Q07343+Q08493); assay: Inhibition of Phosphodiesterase 4
# Phosphodiesterase 4 [3] = molecular target: Phosphodiesterase 4 (Mus musculus, UniProt Q8VBU5+Q3UEI1+O89084+Q01063); assay: Inhibition of [3H]rolipram binding to Phosphodiesterase 4 (PDE IV)
Compound,inhibition [1] [%],IC50 (Phosphodiesterase 4 [2]) [µM],IC50 (Phosphodiesterase 4 [3]) [µM]
COc1ccc(/C=C2\C(=O)N(C)c3ccc(Br)cc32)cc1OC1CC2CCC1C2 (stereo unspecified),-7,3.6,57
COc1ccc(C2CNC(=O)C2)cc1OC1CCCC1 (stereo unspecified),23,–,–
COc1ccc(/C=C2\C(=O)N(C)c3ccc(Cl)cc32)cc1OC1CC2CCC1C2 (stereo unspecified),-9,3.4,58
COc1ccc(/C=C2/C(=O)N(C)c3ccc([N+](=O)[O-])cc32)cc1OC1CC2CCC1C2 (stereo unspecified),25,7.1,66
COc1ccc(/C=C2\C(=O)Nc3ccc([N+](=O)[O-])cc32)cc1OC1CC2CCC1C2 (stereo unspecified),18,1.2,62

# Continued, values first:
inhibition [1] [%],IC50 (Phosphodiesterase 4 [2]) [µM],IC50 (Phosphodiesterase 4 [3]) [µM],Compound
17,1.7,50,COc1ccc(/C=C2\C(=O)Nc3ccc(Br)cc32)cc1OC1CC2CCC1C2 (stereo unspecified)
–,3.7,3.2,COc1ccc(/C=C2\C(=O)Nc3ccccc32)cc1OC1CC2CCC1C2 (stereo unspecified)
42,0.48,4.6,COc1ccc(/C=C2/C(=O)Nc3ccccc32)cc1OC1CC2CCC1C2 (stereo unspecified)
